A short description of one data set: solubility in water. The data set is classed as physicochemical. To be noted: product of example 1. The protocol: As the water-solubility of Erianin is low, the solubility in water being just <1 mg/ml, its preparation performance and clinical application are limited, so it is necessary to study the salts that can improve its water-solubility. At present, there is not any literature on the salts of Erianin and it's preparing process.
Cooling the crude acyl chloride in ice bath, adding sodium hydroxide solution (2 mol/L) while stirring till the PH value of the mixture is between 8˜10, stirring for 8 hours at 50° C.˜80° C., filtering to remove the insoluble substance, decompressing to evaporate most of the solvent, cooling for the white solid to be separated, which is the crude disodium phosphate of Erianin; Dissolving the crude product with ethanol while heated, filtering to remove the insoluble solid while hot, and cooling the filtrate for separated crystal as pure disodium phosphate of Erianin (6.0 g), a white crystal product with a yield of 86% m.p. 266-269° C., (splitting), dissolubility in water: 200 mg/ml.

Another data set has as its system S180 tumor. As to conditions: for Weight 10 d: body weight day 10; for Tumor weight / rate of tumor inhibition: day 10; for Weight 0 d: body weight day 0. From the text:
Samples: disodium phosphate of Erianin (AP, prepared by the process of example 1) prepared the concentration needed with physiologic saline.
Control medicine: cyclophosphamide for injection (CTX), Shanghai Hualian Pharmaceutical Co., Ltd, batch number: 020806. dissolved with physiologic saline for use.
Fifty Kunming mice, female, weight: […], provided by the animal house in Shanghai Institute of Pharmaceutical Industry.
Two S180 ascites tumor mice, provided by the animal house in Shanghai Institute of Pharmaceutical Industry.
Drawing ascites under aseptic condition from S180 ascites tumor mice, counting the cells, diluting to 1-2×10^7/ml with physiologic saline, giving subcutaneous inoculation in the armpit of the mice with 0.2 ml each, randomly dividing the mice equally into five groups the next day, ten in each group.
Dosage for administration (mg/kg./d): AP 25 mg/kg, 75 mg/kg, 225 mg/kg
Means of administration: intravenous injection
The control medicine, cyclophosphamide, administered by intravenous injection, the dosage being 30 mg/kg×9d.
And setting up blank control group.
Administering medicine to the mice by weight the next day of inoculation, […] 0.5 ml/20 g for 9 days, by weight, and putting them to death on the tenth day after inoculation, weighing the tumor and calculating the rate of tumor inhibition.
Assessing the result according to the following formula: […]

The subject of a further data set is Kunming mice. Briefly: LD50 determination of disodium phosphate of Erianin. The data set is classed as in vivo. To be noted: for deaths, death rate in total: 10 mice. How it is done: Experimental animal: Kunming mice, provided by Shanghai Slac Laboratory Animal Co., Ltd., weight being between 18˜22 g, half and half of female and male.
Reagent: 0.9% NaCl, disodium phosphate of Erianin (AP), provided by Zhejiang Cell Biomedical Research Co., Ltd., which is prepared by the process above, bitter acid.
(1) Experimental animal: Kunming mice, set up in 7 groups, 10 mice every group and half and half of female and male. Marked by bitter acid.
(2) In every group, administering by vena caudalis injection according to body weight of 1300 mg/kg, 1250 mg/kg, 1200 mg/kg, 1150 mg/kg, 1100 mg/kg, 1050 mg/kg, 1000 mg/kg.
(3) Observing at 0.25 h, 0.5 h, 1 h, 2 h, 4 h, 24 h respectively after administration and recording the death rate; then observing once every day and recording the death rate (table 1) for 14 days; putting the mice still alive to death on the 15th day and giving pathological anatomy.

The test system of another data set is tumor cell strain K256. To be noted: among dihydrobibenzyls and phenanthrenes in Dendrobium chrysotoxum; cited from earlier work.
Another data set concerns liver cancer of mouse. To be noted: cited from earlier work.
The subject of data set [1] is human leukemia HL-60 cells. As to conditions: cited from earlier work.
The conditions of data set [2]: background statement; cited from earlier work.

Read-outs that look alike come from different tables or passages of the source. Bounds are passed on as bounds.

“3,4,5,4′-tetramethoxyl diphenylethane-3′-O-disodic phosphate [AP]” gave a dissolubility in water in the data set “solubility in water” of 200 mg/mL. Besides, the “Weight 10 d” value in the data set with S180 tumor (25 mg/kg i.v. for 9 days) is given as 22.93 ± 1.28 g; with S180 tumor (75 mg/kg i.v. for 9 days), 22.75 ± 2.25 g; in the data set with S180 tumor (225 mg/kg i.v. for 9 days), 22.01 ± 3.46 g. For the same compound, the Tumor weight is recorded as 1.42 ± 0.26 in the data set with S180 tumor (25 mg/kg i.v. for 9 days), 0.82 ± 0.20 in the data set with S180 tumor (75 mg/kg i.v. for 9 days) and 0.69 ± 0.08 in the data set with S180 tumor (225 mg/kg i.v. for 9 days). The “rate of tumor inhibition” value with S180 tumor (25 mg/kg i.v. for 9 days) is listed as 42%; in the data set on S180 tumor (75 mg/kg i.v. for 9 days) it was 67%; with S180 tumor (225 mg/kg i.v. for 9 days), 72%. In addition, the results for the “Weight 0 d” value with S180 tumor (25 mg/kg i.v.), with S180 tumor (75 mg/kg i.v.) and in the data set on S180 tumor (225 mg/kg i.v.) were 18.37 ± 1.58 g, 18.41 ± 1.74 g and 19.65 ± 1.26 g, respectively. Moreover, the “deaths, death rate in total” value is 0 in the data set on Kunming mice (1000 mg/kg i.v.); 1 with Kunming mice (1050 mg/kg i.v.); 3 with Kunming mice (1100 mg/kg i.v.); 1 in the data set with Kunming mice (1150 mg/kg i.v.); 3 with Kunming mice (1200 mg/kg i.v.); 6 with Kunming mice (1250 mg/kg i.v.). For the same compound, the “deaths, death rate in total” value in the data set on Kunming mice (1300 mg/kg i.v.) was determined as 7. The deaths in the data set on Kunming mice (1050 mg/kg i.v., day 1) was 1; in the data set with Kunming mice (1100 mg/kg i.v., day 1), 3; in the data set with Kunming mice (1150 mg/kg i.v., day 1), 1; with Kunming mice (1200 mg/kg i.v., day 5), 1; with Kunming mice (1200 mg/kg i.v., day 6), 1; in the data set with Kunming mice (1200 mg/kg i.v., hours 0-4), 1. Further, the deaths in the data set on Kunming mice (1250 mg/kg i.v., day 1) came to 3; in the data set with Kunming mice (1250 mg/kg i.v., day 2), 2; in the data set on Kunming mice (1250 mg/kg i.v., hours 0-4) it was 1; with Kunming mice (1300 mg/kg i.v., day 1), 6; with Kunming mice (1300 mg/kg i.v., day 3), 1. Also, the median lethal dose (LD50) (in general, the dose at which mortality reaches 50%) with Kunming mice (Kunming mice, vena caudalis injection, 14 days observation) is reported as 1243.0377 mg/kg. Moreover, in the data set with Kunming mice (mice died during the experiment and mice executed after 14 days), the pathological anatomy entry is “no obvious pathological change”.

For the compound `COc1ccc(CCc2cc(OC)c(OC)c(OC)c2)cc1O` [Erianin], the “inhibitory effect on the growth of tumor cell strain K256” value in the data set on tumor cell strain K256 is reported as “the most active”. Further, in the data set on liver cancer of mouse, the tumor inhibitory rate is given as 50.82%. Moreover, the “growth of human leukemia HL-60 cells” value in data set [1] is given as “significantly inhibited”. Also, in data set [2], the solubility in water is less than 1 mg/mL.

On to `O=P1(N(CCCl)CCCl)NCCCO1` (centres unmarked) [CTX, cyclophosphamide, reference compound], for which, in the data set with S180 tumor (30 mg/kg i.v.), the “Weight 0 d” value is listed as 19.78 ± 1.20 g. Moreover, in the data set on S180 tumor (30 mg/kg×9d i.v.), the “Weight 10 d” value was 19.58 ± 2.54 g, the Tumor weight is on record as 0.41 ± 0.17 and the “rate of tumor inhibition” value is on record as 83%.

(Values after patent US20080306028A1, “Erianin Salts, Their Preparation Methods and Pharmaceutical Compositions Containing the Same” (priority 2005, published 2008).)
